# Source: patent US20230221325A1, “SOLUBLE CD28 LEVELS AFTER IMMUNOTHERAPY” (BIOND BIOLOGICS LTD., priority 2019, published 2023)
# Columns and labels:
# CMV-stimulated PBMC = assay: CMV activation of PBMCs for the generation of soluble CD28 (ELISA); type: cell-based, human; conditions: 7 days CMV stimulation, with anti-PD-1 (Keytruda) 5 μg/mL, inhibitor 1 μM
# [1] = system: SEB stimulated human PBMC; assay: SEB activation of PBMCs for the generation of soluble CD28 (ELISA); type: cell-based
# melanoma patients = assay: Survival of melanoma patients on anti-PD1 therapy by sCD28 level before therapy; type: in vivo, human
# Description: To further understand the impact of sCD28 levels on cancer progression during immunotherapy, more than 100 serum samples from melanoma patients prior to initiation of anti-PD1 therapy (Nivolumab, NCT01176461) were tested for sCD28 levels by ELISA. Survival was monitored throughout therapy and a survival function was plotted comparing subjects with high and low levels of sCD28 before therapy (FIG. 1).
compound,measurement,setting,value
CNC(=O)[C@@H](NC(=O)[C@H](CCCc1ccccc1)[C@H](C)N(O)C=O)C(C)(C)C [GI254023X],sCD28 increase caused by anti-PD-1,CMV-stimulated PBMC,abrogated the sCD28 increase caused by immunotherapy
"Keytruda: Anti-PD-1 (Keytruda, Merck)",sCD28 in the media (increase induced by SEB),"[1]; PBMCs from two healthy donors, SEB for 8 days, anti-PD-1 5 μg/mL vs isotype control",enhanced
same,"sCD28 increase caused by the immunotherapy, significance","[1]; days 6-8, vs isotype control",statistically significant
Nivolumab: anti-PD1 therapy (NCT01176461),median survival,melanoma patients; subjects with high levels of sCD28 before therapy,514 days
same,median survival,melanoma patients; subjects with low levels of sCD28 (below 2 ng/mL) before therapy,659 days
